Experimental data published in patent publication US11958835B1, “6-(6-bromo-2-oxo-2H-chromen-3-yl)-4-(4-chlorophenyl)-2-alkoxynicotinonitrile as antimicrobial agents” (KING FAISAL UNIVERSITY, priority 2023, dated 2024).

Key:
Format in all cases: cell-based
[1] = tested on: Bacillus cereus; experiment: agar plate disc-diffusion, antibacterial, Bacillus cereus; conditions: DMSO control zone subtracted; for inhibition zone, Bacillus Cereus, A: A = concentration of comp. = 10,000 μL; for inhibition zone, Bacillus Cereus, B: B = concentration of comp. = 30.000 μL; for inhibition zone, Bacillus Cereus, C: C = concentration of comp. = 50,000 μL
Procedure: (§1) The agar plate disc-diffusion method was applied. Sterilized filter papers (6 mm in diameter) were wetted with 10 μL of a solution of 6-(6-bromo-2-oxo-2H-chromen-3-yl)-4-(4-chlorophenyl)-2-ethoxynicotinonitrile (1) and 6-(6-bromo-2-oxo-2H-chromen-3-yl)-4-(4-chlorophenyl)-2-methoxynicotinonitrile (2) to be tested, containing […], and the discs were allowed to air dry. The discs were then placed onto the surface of agar plates (nutrient agar for bacteria and Sabouraud's dextrose agar for fungi) seeded with the test organism. Each plate contained 15 mL of the agar medium, previously seeded with 0.2 mL of the broth culture of each organism pregrown for 18 hours. The plates were incubated at 37° C. for 48 hours, and 72 hours for fungi. The inhibition zones were measured in millimeters. Discs impregnated with DMSO were used as a control, and its inhibition zone was subtracted from the tested compound actual inhibition zone.
(§2) Their antibacterial screened against gram positive bacteria namely Bacillus cereus and Staphylococcus aureus and gram-negative bacterial strains namely Pseudomonas aeruginosa and Escherichia coli, while their antifungal activity screened against Aspergillus flavus and Chrysosporium keratinophilum as shown in Tables 1 and 2 using ciprofloxacin as a reference.

[2] = tested on: Staphylococcus aureus; experiment: agar plate disc-diffusion, antibacterial, Staphylococcus aureus; conditions: DMSO control zone subtracted; for inhibition zone, Staphylococcus aureus, A: A = concentration of comp. = 10,000 μL; for inhibition zone, Staphylococcus aureus, B: B = concentration of comp. = 30.000 μL; for inhibition zone, Staphylococcus aureus, C: C = concentration of comp. = 50,000 μL
Procedure: as §1, §2

[3] = tested on: Pseudomonas aeruginosa; experiment: agar plate disc-diffusion, antibacterial, Pseudomonas aeruginosa; conditions: DMSO control zone subtracted; for inhibition zone, Pseudomonas aeruginosa, A: A = concentration of comp. = 10,000 μL; for inhibition zone, Pseudomonas aeruginosa, B: B = concentration of comp. = 30.000 μL; for inhibition zone, Pseudomonas aeruginosa, C: C = concentration of comp. = 50,000 μL
Procedure: as §1, §2

[4] = tested on: Escherichia coli; experiment: agar plate disc-diffusion, antibacterial, Escherichia coli; conditions: DMSO control zone subtracted; for inhibition zone, Escherichia coli, A: A = concentration of comp. = 10,000 μL; for inhibition zone, Escherichia coli, B: B = concentration of comp. = 30.000 μL; for inhibition zone, Escherichia coli, C: C = concentration of comp. = 50,000 μL
Procedure: as §1, §2

[5] = tested on: Aspergillus flavus; experiment: agar plate disc-diffusion, antifungal, Aspergillus flavus; conditions: DMSO control zone subtracted; for inhibition zone, Aspergillus flavus, A: A = concentration of comp. = 10,000 μL; for inhibition zone, Aspergillus flavus, B: B = concentration of comp. = 30.000 μL; for inhibition zone, Aspergillus flavus, C: C = concentration of comp. = 50,000 μL
Procedure: as §1, §2

[6] = tested on: Chrysosporium keratinophilum; experiment: agar plate disc-diffusion, antifungal, Chrysosporium keratinophilum; conditions: DMSO control zone subtracted; for inhibition zone, Chrysosporiam keratinophilum, A: A = concentration of comp. = 10,000 μL; for inhibition zone, Chrysosporiam keratinophilum, B: B = concentration of comp. = 30.000 μL; for inhibition zone, Chrysosporiam keratinophilum, C: C = concentration of comp. = 50,000 μL
Procedure: as §1, §2

Compound | inhibition zone, Bacillus Cereus, A [1] [millimeters] | inhibition zone, Bacillus Cereus, B [1] [millimeters] | inhibition zone, Bacillus Cereus, C [1] [millimeters] | inhibition zone, Staphylococcus aureus, A [2] [millimeters] | inhibition zone, Staphylococcus aureus, B [2] [millimeters] | inhibition zone, Staphylococcus aureus, C [2] [millimeters] | inhibition zone, Pseudomonas aeruginosa, A [3] [millimeters] | inhibition zone, Pseudomonas aeruginosa, B [3] [millimeters] | inhibition zone, Pseudomonas aeruginosa, C [3] [millimeters] | inhibition zone, Escherichia coli, A [4] [millimeters] | inhibition zone, Escherichia coli, B [4] [millimeters] | inhibition zone, Escherichia coli, C [4] [millimeters] | inhibition zone, Aspergillus flavus, A [5] [millimeters] | inhibition zone, Aspergillus flavus, B [5] [millimeters] | inhibition zone, Aspergillus flavus, C [5] [millimeters] | inhibition zone, Chrysosporiam keratinophilum, A [6] [millimeters] | inhibition zone, Chrysosporiam keratinophilum, B [6] [millimeters] | inhibition zone, Chrysosporiam keratinophilum, C [6] [millimeters]
O=C(O)c1cn(C2CC2)c2cc(N3CCNCC3)c(F)cc2c1=O [Cip., ciprofloxacin, reference compound] | 29 | 30 | 42 | 43 | 44 | 53 | 29 | 30 | 53 | 30 | 39 | 60 | 29 | 30 | 42 | 29 | 30 | 53
COc1nc(-c2cc3cc(Br)ccc3oc2=O)cc(-c2ccc(Cl)cc2)c1C#N [Compound 2, 6-(6-bromo-2-oxo-2H-chromen-3-yl)-4-(4-chlorophenyl)-2-methoxynicotinonitrile] | 25 | 27 | 35 | 17 | 23 | 29 | 25 | 31 | 35 | 27 | 34 | 48 | 19 | 23 | 33 | 25 | 29 | 40
CCOc1nc(-c2cc3cc(Br)ccc3oc2=O)cc(-c2ccc(Cl)cc2)c1C#N [Compound 1, 6-(6-bromo-2-oxo-2H-chromen-3-yl)-4-(4-chlorophenyl)-2-ethoxynicotinonitrile] | 15 | 20 | 29 | 18 | 22 | 27 | 21 | 26 | 37 | 27 | 37 | 45 | 20 | 25 | 34 | 24 | 27 | 39
